In PubChem BioAssay (NCI):
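Cells were grown in 96-well plates and exposed to each compound for 48 hours at five concentrations; endpoints were interpolated linearly between bracketing concentrations, or set to the highest concentration if not reached. TGI is the concentration that stops growth completely.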 Where a SMILES comes first, the peptide text is derived from it. [ ]: non-standard residue; d: D form.

What was measured:
Test in all cases: NCI tumour cell line growth inhibition, 48 h
DU-145 prostate = tested on: DU-145 prostate
HOP-62 NSCLC = tested on: HOP-62 NSCLC
MCF7 breast = tested on: MCF7 breast
NCI-H23 lung = tested on: NCI-H23 lung
NCI-H522 lung = tested on: NCI-H522 lung
OVCAR-4 ovarian = tested on: OVCAR-4 ovarian
HT29 colon = tested on: HT29 colon
NCI-H226 lung = tested on: NCI-H226 lung
SF-268 CNS = tested on: SF-268 CNS
SW-620 colon = tested on: SW-620 colon

Structure (SMILES) | TGI (DU-145 prostate) [µM] | TGI (HOP-62 NSCLC) [µM] | TGI (MCF7 breast) [µM] | TGI (NCI-H23 lung) [µM] | TGI (NCI-H522 lung) [µM] | TGI (OVCAR-4 ovarian) [µM] | TGI (HT29 colon) [µM] | TGI (NCI-H226 lung) [µM] | TGI (SF-268 CNS) [µM] | TGI (SW-620 colon) [µM]
O=c1c(O)c(-c2ccccc2)oc2c(CP(=O)(O)O)cccc12 | > 100 | > 100 | > 100 | > 100 | > 100 | > 100 | – | – | – | –
CCOC(=O)c1ccc2nc3n(c2c1)C(c1c(F)cccc1F)SC3 (stereo unspecified) | > 100 | > 100 | > 100 | > 100 | – | > 100 | > 100 | 87 | > 100 | > 100
NC1(c2cc3ccccc3s2)CCCCCC1 | 30.9 | 27.7 | 29.7 | 34 | – | 27.7 | 29.3 | 38.4 | – | 31.1
[N-]=[N+]=C(C(=O)CN1CCCC1=O)S(=O)(=O)c1ccccc1 | > 100 | > 100 | > 100 | > 100 | > 100 | – | > 100 | > 100 | > 100 | > 100
COC(=O)/C1=C/C=C\C[C@@]2(C)CC(c3ccoc3)OC(=O)[C@@H]2CC[C@H]1C (stereo partly specified) | – | > 25 | > 25 | > 25 | – | > 25 | > 25 | > 25 | – | > 25
O=C1Sc2ccccc2C(=O)N2CCSC12 (stereo unspecified) | – | > 100 | – | > 100 | – | – | – | – | – | > 100
COC(=O)/C=C1\C(CO[Si](C)(C)C(C)(C)C)OC(n2cc(C)c(=O)n(C)c2=O)C1O[Si](C)(C)C(C)(C)C (stereo unspecified) | > 100 | > 100 | > 100 | > 100 | > 100 | – | > 100 | > 100 | > 100 | > 100
CCOC(=O)c1nc2ccccc2nc1Nc1ccc(C(=O)OC)s1 | > 100 | > 100 | > 100 | > 100 | > 100 | > 100 | > 100 | – | > 100 | > 100
N#CC1=C(O)NC(O)=C(C#N)C1c1c(Cl)cccc1Cl | – | 67.8 | – | > 100 | > 100 | > 100 | > 100 | 64.9 | > 100 | > 100
CCOC(=O)c1sc2nc(SC)nc3c2c1NCN3C | > 100 | 47.2 | – | 59.1 | – | > 100 | > 100 | > 100 | 61.5 | –
COCC(C#N)NC1CC(OC2CC(O)(C(=O)CO)Cc3c(O)c4c(c(O)c32)C(=O)c2c(OC)cccc2C4=O)OC(C)C1O (stereo unspecified) | – | 0.261 | 0.836 | 0.682 | 0.193 | 2.08 | 9.03 | 0.117 | 0.691 | 4.8
O=C1CCC2(O)c3ccccc3C2Cc2ccccc21 (stereo unspecified) | – | > 100 | – | > 100 | – | – | > 100 | > 100 | > 100 | > 100
O=C1C(Cl)N(c2ccc([N+](=O)[O-])cc2)C1c1c[nH]c2ccccc12 (stereo unspecified) | – | > 100 | – | > 100 | > 100 | > 100 | > 100 | – | > 100 | > 100
Clc1ccc(C2SCc3nc4ccccc4n32)cc1 (stereo unspecified) | – | – | – | 48.3 | 44.4 | – | 49.4 | 75.4 | 88.4 | > 100
CCCCCCc1ccc(CCCCCCCC(=O)O)o1 | > 100 | > 100 | > 100 | > 100 | – | > 100 | > 100 | > 100 | – | > 100
Cc1cn(C2CC(O)C(Cn3nncc3Cn3nc(Br)c(=O)[nH]c3=O)O2)c(=O)[nH]c1=O (stereo unspecified) | > 100 | > 100 | > 100 | > 100 | > 100 | > 100 | – | > 100 | > 100 | > 100
CC(C)C[C@H](NC(=O)[C@H](CC(C)C)NC(=O)[C@@H](Cc1c[nH]c2ccccc12)NC(=O)[C@H](Cc1ccccc1)NC(=O)[C@@H](Cc1c[nH]c2ccccc12)NC(=O)[C@H](CCC(N)=O)NC(=O)[C@@H](CCC(N)=O)NC(=O)[C@@H]1CCCN1C(=O)[C@@H](CCCCN)NC(=O)[C@H]1CCCN1C(=O)[C@H](N)CCCN=C(N)N)C(N)=O (H-[dR][dP][dK]P[dQ]Q[dW]F[dW]LL-NH2) | – | > 100 | > 100 | > 100 | > 100 | > 100 | > 100 | > 100 | > 100 | > 100
Cc1cc(C)[n+]2c(c1)C=CC2 | – | > 100 | – | 84.2 | 49.5 | > 100 | > 100 | 60.8 | > 100 | > 100
O=S(=O)(O)c1cc(S(=O)(=O)O)c2cc(N=Nc3ccc(N=Nc4ccc(/C=C/c5ccc(N=[N+]([O-])c6ccc(/C=C/c7ccc(N=Nc8ccc(N=Nc9ccc%10cc(S(=O)(=O)O)cc(S(=O)(=O)O)c%10c9)cc8)cc7S(=O)(=O)O)c(S(=O)(=O)O)c6)cc5S(=O)(=O)O)c(S(=O)(=O)O)c4)cc3)ccc2c1 | – | > 100 | > 100 | > 100 | > 100 | > 100 | > 100 | > 100 | > 100 | –
COc1ccc(C2N(c3ccc(C)c(N=C=O)c3)C(=O)N3C(c4ccc(OC)cc4)N(c4ccc(C)c(N=C=O)c4)C(=O)N23)cc1 (stereo unspecified) | > 100 | > 100 | > 100 | > 100 | – | > 100 | > 100 | > 100 | > 100 | > 100
CN(C)C(=O)N1N[C@H](c2ccccc2)[C@@H]1c1ccccc1 | > 100 | > 100 | > 100 | > 100 | > 100 | > 100 | – | > 100 | – | > 100
CCN(CC)/N=C\c1c2ccccc2cc2ccccc12 | > 100 | – | – | > 100 | 63.7 | > 100 | 88.3 | – | > 100 | > 100
COP(=O)(CP(=O)(OC)OCCC(C)CCC=C(C)C)OC (stereo unspecified) | – | > 100 | > 100 | > 100 | > 100 | > 100 | – | > 100 | > 100 | > 100
COc1ccc(/C(=N/O)c2ccccc2C2=Nc3ccccc3C(NCc3ccccc3)O2)cc1C (stereo unspecified) | > 100 | > 100 | > 100 | > 100 | > 100 | – | > 100 | > 100 | > 100 | > 100
